Assay results from patent US8822509B2, “Pain-relieving compositions and uses therefor” (priority 2006, dated 2014).
Entries after “also recorded” stand apart in the source; their conditions may differ. Like-named read-outs stand apart in the source and are kept apart here. Marks after values point to notes of the source that are not given here.

Legend:
[1] = target: T1, μ-opioid receptors (MOP receptors) (Mus musculus, UniProt P42866); assay type: cell-based
T1 construct: expressed in transfected cells; host or cells: HEK293
T1 sequence (P42866 whole entry): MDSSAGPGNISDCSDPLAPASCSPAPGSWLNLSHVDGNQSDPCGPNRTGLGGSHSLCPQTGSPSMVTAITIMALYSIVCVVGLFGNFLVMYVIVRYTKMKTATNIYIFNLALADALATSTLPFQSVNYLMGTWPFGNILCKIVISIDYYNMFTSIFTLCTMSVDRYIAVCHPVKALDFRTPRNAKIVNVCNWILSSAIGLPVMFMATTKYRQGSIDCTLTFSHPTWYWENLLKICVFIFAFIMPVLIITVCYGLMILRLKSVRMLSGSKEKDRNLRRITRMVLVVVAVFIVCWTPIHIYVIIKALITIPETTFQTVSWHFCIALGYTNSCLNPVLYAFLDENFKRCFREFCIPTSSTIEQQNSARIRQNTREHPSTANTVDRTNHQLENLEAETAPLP
Method: Briefly, HEK-MOP cells were pre-incubated with 2% (2-hydroxypropyl)-β-cyclodextrin (βCD) for 1 h at 37° C. to deplete cholesterol from caveloae in the cell membrane. Cells were washed with DMEM and then utilized in the forskolin-stimulated cAMP assay as described above. […] Cells were washed with DMEM and then utilized in the forskolin-stimulated cAMP assay as described above.

[2] = target: T1, μ-opioid receptors (MOP receptors); assay type: cell-based; remark: listed apart in the source

Structure (SMILES)	% of forskolin stimulated cyclic AMP response ([1]; Conc 10^−3 M) [%]	% of forskolin stimulated cyclic AMP response ([1]; Conc 10^−4 M)	% of forskolin stimulated cyclic AMP response ([1]; Conc 10^−5 M)	% of forskolin stimulated cyclic AMP response ([1]; Conc 10^−6 M)	% of forskolin stimulated cyclic AMP response ([1]; Conc 10^−7 M) [%]	% of forskolin stimulated cyclic AMP response ([1]; Conc 10^−8 M)	% of forskolin stimulated cyclic AMP response ([1]; Conc 10^−9 M)	% of forskolin stimulated cyclic AMP response ([1]; Conc 10^−11 M) [%]	% of forskolin stimulated cyclic AMP response ([1]; Conc 10^−13 M)	% of forskolin stimulated cyclic AMP response ([1]; Conc 10^−14 M)	% of forskolin stimulated cyclic AMP response ([1]; Conc 10^−15 M)	% of forskolin stimulated cyclic AMP response ([1]; Conc 10^−16 M) [%]	% of forskolin stimulated cyclic AMP response ([1]; Conc 10^−17 M)	% of forskolin stimulated cyclic AMP response ([1]; Conc 10^−18 M) [%]	% of forskolin stimulated cyclic AMP response ([2]; Conc 10^−10 M)	% of forskolin stimulated cyclic AMP response ([2]; Conc 10^−12 M)	effect on forskolin-stimulated cAMP responses ([2]; MOP-transfected HEK293 (FIG. 11))
CC(=O)c1c(-c2ccccc2)no[n+]1[O-] [Compound 27]	22.4	73.8^a %	128.2%	60.0%	83.2	86.4%	56.4%	84.4	88.3^a %	78.2%	115.4%	162.4	108.6^a %	56.5	46.0%	66.7^a %	
[O-][n+]1onc(-c2ccccc2)c1CO [Compound 31]	3.8	182.4^a %	96.9^a %	60.0^a %	108.4	36.2^a %	76.8^a %	61.0	85.7%	77.5^a %	42.2^a %	54.8	48.5^a %	94.5	42.8^a %	81.4%	
CCc1c(C(=O)O)no[n+]1[O-] [Compound 8]	6.8	68.2%	90.0%	104.7%	102.9	114.3%	107.0%	88.3	112.7%	94.8%	97.6%	140.5	115.0%	72.8	79.4%	128.3%	
COc1ccc(-c2no[n+]([O-])c2C)cc1 [Compound 24]	71.2	106.7^a %	131.1^a %	56.7%	94.3	53.8^a %	132.4%	79.4	82.3%	75.1%	97.0^a %	88.0	70.0%	70.0	60.2%	90.1%	
Nc1nc2c(nc(Br)n2[C@@H]2O[C@@H]3COP(=O)(O)O[C@H]3[C@H]2O)c(=O)[nH]1 [Compound 8-Br-cGMP, 8-Br-cGMP, reference compound]																	did not inhibit forskolin-stimulated cAMP responses; also recorded: lack of effects
